Our source for the EC50 values is patent US10150760B2, “Compounds for use in preparing heterocyclic triazole agonists of the APJ receptor” (AMGEN INC., priority 2016, dated 2018).

This test addresses human APJ receptor (Homo sapiens (Human), UniProt P35414). The experiment in a line: [35S]GTPγS binding assay on membranes from CHO cells stably expressing human APJ receptor. The class given is biochemical. Particulars: read-out: Activity hAPJ SPA EC50 IP. The procedure, abridged: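 Agonist-driven [35S]GTPγS (0.2 nM) binding was measured over 90 min at room temperature on human APJ-expressing CHO membranes with bead capture, in buffer containing 3 μM GDP, 200 mM NaCl and 5 mM MgCl2 (pH 7.5). Excess unlabelled GTPγS (100 μM) gave nonspecific signal; EC50 from non-linear fits.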
In general terms: GTPγS is a poorly hydrolysed GTP analogue; its binding reports G protein activation.

Sequence of human APJ receptor (P35414 whole entry): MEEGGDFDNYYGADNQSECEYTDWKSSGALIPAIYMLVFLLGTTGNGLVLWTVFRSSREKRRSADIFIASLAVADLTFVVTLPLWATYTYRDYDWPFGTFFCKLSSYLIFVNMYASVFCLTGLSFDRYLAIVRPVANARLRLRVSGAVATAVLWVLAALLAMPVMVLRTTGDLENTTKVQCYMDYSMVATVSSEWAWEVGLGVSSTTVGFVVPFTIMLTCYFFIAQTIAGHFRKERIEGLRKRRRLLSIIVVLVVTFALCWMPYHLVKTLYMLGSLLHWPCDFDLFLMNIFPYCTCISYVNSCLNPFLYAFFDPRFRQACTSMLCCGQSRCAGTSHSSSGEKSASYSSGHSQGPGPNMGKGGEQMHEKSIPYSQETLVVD

In general, EC50 refers to the concentration giving half of the maximal effect. Take `Cc1cnc([C@@H](C)[C@H](C)S(=O)(=O)Nc2nnc([C@@H]3CCCO3)n2-c2c(F)cncc2F)nc1` [Example 25.0, (2S,3R)-N-(4-(3,5-difluoro-4-pyridinyl)-5-((2S)-tetrahydro-2-furanyl)-4H-1,2,4-triazol-3-yl)-3-(5-methyl-2-pyrimidinyl)-2-butanesulfonamide]: the EC50 stood at 130 nM.
In the case of `Cc1cnc([C@@H](C)[C@H](C)S(=O)(=O)Nc2nnc([C@H]3CCCO3)n2-c2c(F)cncc2F)nc1` [Example 26.0, (2S,3R)-N-(4-(3,5-difluoro-4-pyridinyl)-5-((2R)-tetrahydro-2-furanyl)-4H-1,2,4-triazol-3-yl)-3-(5-methyl-2-pyrimidinyl)-2-butanesulfonamide] it was 870 nM.
In the case of `COc1cccc(OC)c1-n1c(NS(=O)(=O)[C@@H](C)[C@H](C)c2ncc(Cl)cn2)nnc1C1COC1` [Example 36.0, (2S,3R)-3-(5-chloro-2-pyrimidinyl)-N-(4-(2,6-dimethoxyphenyl)-5-(3-oxetanyl)-4H-1,2,4-triazol-3-yl)-2-butanesulfonamide] it was 140 nM.
For `COc1cccc(OC)c1-n1c(NS(=O)(=O)CCc2ccc(F)cc2C#N)nnc1[C@H]1CCC(=O)N1` [Example 43.0, 2-(2-Cyano-4-fluorophenyl)-N-(4-(2,6-dimethoxyphenyl)-5-((2R)-5-oxo-2-pyrrolidinyl)-4H-1,2,4-triazol-3-yl)ethanesulfonamide] the value was 1190 nM.
For the molecule `COc1cccc(OC)c1-n1c(NS(=O)(=O)CCc2ccc(F)cc2C#N)nnc1[C@@H]1CCC(=O)N1` [Example 44.0, 2-(2-Cyano-4-fluorophenyl)-N-(4-(2,6-dimethoxyphenyl)-5-((2S)-5-oxo-2-pyrrolidinyl)-4H-1,2,4-triazol-3-yl)ethanesulfonamide], the EC50 is 430 nM.
In the case of `COc1cccc(OC)c1-n1c(NS(=O)(=O)[C@@H](C)[C@H](OC)c2ncc(Cl)cn2)nnc1C1CCOCC1` [Example 103.0, (1R,2S)-1-(5-chloropyrimidin-2-yl)-N-(4-(2,6-dimethoxyphenyl)-5-(tetrahydro-2H-pyran-4-yl)-4H-1,2,4-triazol-3-yl)-1-methoxypropane-2-sulfonamide] it was 45 nM; in that of `COc1ccccc1-n1c(NS(=O)(=O)[C@@H](C)[C@H](OC)c2ncc(Cl)cn2)nnc1[C@@H]1CCCO1` [Example 240.0, (1R,2S)-1-(5-chloro-2-pyrimidinyl)-1-methoxy-N-(4-(2-methoxyphenyl)-5-((2S)-tetrahydro-2-furany1)-4H-1,2,4-triazol-3-y1)-2-propanesulfonamide], 1.3 nM; in that of `CCc1ccccc1-n1c(NS(=O)(=O)[C@@H](C)[C@H](OC)c2ncc(Cl)cn2)nnc1[C@@H]1CCCO1` [Example 241.0, (1R,2S)-1-(5-chloro-2-pyrimidinyl)-N-(4-(2-ethylphenyl)-5-((2S)-tetrahydro-2-furanyl)-4H-1,2,4-triazol-3-y1)-1-methoxy-2-propanesulfonamide], 1.4 nM.
For `CO[C@H](c1ncc(Cl)cn1)[C@H](C)S(=O)(=O)Nc1nnc([C@@H]2CCCO2)n1-c1ccccc1C` [Example 242.0, (1R,2S)-1-(5-chloro-2-pyrimidinyl)-1-methoxy-N-(4-(2-methylphenyl)-5-((2S)-tetrahydro-2-furanyl)-4H-1,2,4-triazol-3-yl)-2-propanesulfonamide] the value was 8.7 nM; for `CO[C@H](c1ncc(Cl)cn1)[C@H](C)S(=O)(=O)Nc1nnc([C@@H]2CCCO2)n1-c1ccccc1Cl` [Example 243.0, (1R,2S)-N-(4-(2-chlorophenyl)-5-((2S)-tetrahydro-2-furanyl)-4H-1,2,4-triazol-3-yl)-1-(5-chloro-2-pyrimidinyl)-1-methoxy-2-propanesulfonamide], 5.6 nM.
In the case of `CO[C@H](c1ncc(Cl)cn1)[C@H](C)S(=O)(=O)Nc1nnc([C@@H]2CCCO2)n1-c1ccccc1F` [Example 244.0, (1R,2S)-1-(5-chloro-2-pyrimidinyl)-N-(4-(2-fluorophenyl)-5-((2S)-tetrahydro-2-furanyl)-4H-1,2,4-triazol-3-yl)-1-methoxy-2-propanesulfonamide] it was 21 nM; in that of `COCC(COC)n1c(NS(=O)(=O)[C@@H](C)[C@H](OC)c2ncc(Cl)cn2)nnc1[C@H]1CCCO1` [Example 330.0, (1R,2S)-1-(5-chloro-2-pyrimidinyl)-N-(4-(1,3-dimethoxy-2-propanyl)-5-((2R)-tetrahydro-2-furanyl)-4H-1,2,4-triazol-3-yl)-1-methoxy-2-propanesulfonamide], 160 nM; in that of `COCC(COC)n1c(NS(=O)(=O)[C@@H](C)[C@H](OC)c2ncc(Cl)cn2)nnc1[C@@H]1CCCO1` [Example 332.0, (1R,2S)-1-(5-chloro-2-pyrimidinyl)-N-(4-(1,3-dimethoxy-2-propanyl)-5-((2S)-tetrahydro-2-furanyl)-4H-1,2,4-triazol-3-yl)-1-methoxy-2-propanesulfonamide], 14 nM.
Regarding `COc1cccc(OC)c1-n1c(NS(=O)(=O)CCc2ccc(F)cc2C#N)nnc1[C@@H]1CCOC1` [Example 345.0, (S)-2-(2-cyano-4-fluorophenyl)-N-(4-(2,6-dimethoxyphenyl)-5-(tetrahydrofuran-3-yl)-4H-1,2,4-triazol-3-yl) ethanesulfonamide], the EC50 is 100 nM.
On to `COc1cccc(OC)c1-n1c(NS(=O)(=O)CCc2ncc(Cl)cn2)nnc1[C@@H]1CCOC1` [Example 386.0, 2-(5-chloro-2-pyrimidinyl)-N-(4-(2,6-dimethoxyphenyl)-5-((3S)-tetrahydro-3-furanyl)-4H-1,2,4-triazol-3-yl)ethanesulfonamide], for which the half-maximal effective concentration (EC50) is 81 nM.
For `COc1cccc(OC)c1-n1c(NS(=O)(=O)CCc2ncc(Cl)cn2)nnc1[C@@H]1CCCO1` [Example 388.0, 2-(5-chloro-2-pyrimidinyl)-N-(4-(2,6-dimethoxyphenyl)-5-((2S)-tetrahydro-2-furanyl)-4H-1,2,4-triazol-3-yl)ethanesulfonamide] the value was 9.8 nM; for `COc1cccc(OC)c1-n1c(NS(=O)(=O)CCc2ncc(Cl)cn2)nnc1[C@H]1CCCO1` [Example 389.0, 2-(5-chloro-2-pyrimidinyl)-N-(4-(2,6-dimethoxyphenyl)-5-((2R)-tetrahydro-2-furanyl)-4H-1,2,4-triazol-3-yl)ethanesulfonamide], 96 nM.
For “(1R,2)S-1-(5-chloropyrimidin-2-yl)-N-(5-((S)-5,5-dimethyltetrahydrofuran-2-yl)-4-(tetrahydro-2H-pyran-4-yl)-4H-1,2,4-triazol-3-yl)-1-methoxypropane-2-sulfonamide or (1R,2S)-1-(5-chloropyrimidin-2-yl)-N-(5-((R)-5,5-dimethyltetrahydrofuran-2-yl)-4-(tetrahydro-2H-pyran-4-yl)-4H-1,2,4-triazol-3-yl)-1-methoxypropane-2-sulfonamide [Example 222.0]”, the EC50 came out at 740 nM.
For “(1R,2)S-N-(4-(2,6-dimethoxyphenyl)-5-((R)-1,4-dioxan-2-yl)-4H-1,2,4-triazol-3-yl)-1-methoxy-1-(5-methylpyrimidin-2-yl)propane-2-sulfonamide or (1R,2S)-N-(4-(2,6-dimethoxyphenyl)-5-((S)-1,4-dioxan-2-yl)-4H-1,2,4-triazol-3-yl)-1-methoxy-1-(5-methylpyrimidin-2-yl)propane-2-sulfonamide [Example 201.0]” the value was 31 nM; for “(1R,2S)-1-(5-chloro-2-pyridinyl)-N-(4-(1,3-dimethoxy-2-propanyl)-5-((2R,5R)-5-methyltetrahydro-2-furanyl)-4H-1,2,4-triazol-3-yl)-1-methoxy-2-propanesulfonamide or (1R,2S)-1-(5-chloro-2-pyridinyl)-N-(4-(1,3-dimethoxy-2-propanyl)-5-((2S,5S)-5-methyltetrahydro-2-furanyl)-4H-1,2,4-triazol-3-yl)-1-methoxy-2-propanesulfonamide [Example 380.0]”, 60 nM; for “(1R,2S)-1-(5-chloro-2-pyridinyl)-N-(4-(1,3-dimethoxy-2-propanyl)-5-((2R,5R)-5-methyltetrahydro-2-furanyl)-4H-1,2,4-triazol-3-yl)-1-methoxy-2-propanesulfonamide or (1R,2S)-1-(5-chloro-2-pyridinyl)-N-(4-(1,3-dimethoxy-2-propanyl)-5-((2S,5S)-5-methyltetrahydro-2-furanyl)-4H-1,2,4-triazol-3-yl)-1-methoxy-2-propanesulfonamide [Example 381.0]”, 2.1 nM.
For “(1R,2S)-1-(5-chloro-2-pyrimidinyl)-N-(4-(1,3-dimethoxy-2-propanyl)-5-((2R)-5,5-dimethyltetrahydro-2-furanyl)-4H-1,2,4-triazol-3-yl)-1-methoxy-2-propanesulfonamide or (1R,2S)-1-(5-chloro-2-pyrimidinyl)-N-(4-(1,3-dimethoxy-2-propanyl)-5-((2S)-5,5-dimethyltetrahydro-2-furanyl)-4H-1,2,4-triazol-3-yl)-1-methoxy-2-propanesulfonamide [Example 307.0]” the value was 14 nM; for “(1R,2S)-1-(5-chloro-2-pyrimidinyl)-N-(4-(1,3-dimethoxy-2-propanyl)-5-((2R)-5,5-dimethyltetrahydro-2-furanyl)-4H-1,2,4-triazol-3-yl)-1-methoxy-2-propanesulfonamide or (1R,2S)-1-(5-chloro-2-pyrimidinyl)-N-(4-(1,3-dimethoxy-2-propanyl)-5-((2S)-5,5-dimethyltetrahydro-2-furanyl)-4H-1,2,4-triazol-3-yl)-1-methoxy-2-propanesulfonamide [Example 308.0]”, 410 nM.
For “(1R,2S)-1-(5-chloro-2-pyrimidinyl)-N-(4-(1,3-dimethoxy-2-propanyl)-5-((2S,5S)-5-methyltetrahydro-2-furanyl)-4H-1,2,4-triazol-3-yl)-1-methoxy-2-propanesulfonamide or (1R,2S)-1-(5-chloro-2-pyrimidinyl)-N-(4-(1,3-dimethoxy-2-propanyl)-5-((2R,5R)-5-methyltetrahydro-2-furanyl)-4H-1,2,4-triazol-3-yl)-1-methoxy-2-propanesulfonamide [Example 252.0]” the value was 250 nM.
